The source made the active and inactive calls. The rule behind the calls is not given here.
Key:
Saccharomyces cerevisiae = assay: Antifungal activity against Saccharomyces cerevisiae MTCC 172 assessed as growth inhibition at 2 mg/mL after 48 hr by disk diffusion method; format: functional
Staphylococcus aureus [1] = assay: Antibacterial activity against Staphylococcus aureus MTCC 96 assessed as growth inhibition at 2 mg/mL after 24 hr by disk diffusion method; format: functional
Bacillus subtilis [2] = assay: Antibacterial activity against Bacillus subtilis MTCC 2451 assessed as growth inhibition at 2 mg/mL after 24 hr by disk diffusion method; format: functional
Candida albicans = assay: Antifungal activity against Candida albicans MTCC 3018 assessed as growth inhibition at 2 mg/mL after 48 hr by disk diffusion method; format: functional
Pseudomonas aeruginosa [3] = assay: Antibacterial activity against Pseudomonas aeruginosa MTCC 2642 assessed as growth inhibition at 2 mg/mL after 24 hr by disk diffusion method; format: functional
Escherichia coli [4] = assay: Antibacterial activity against Escherichia coli MTCC 82 assessed as growth inhibition at 2 mg/mL after 24 hr by disk diffusion method; format: functional
MCF7 [5] = assay: Cytotoxicity against Homo sapiens (human) MCF7 cells assessed as growth inhibition at 10 to 100 uM after 48 hr by SRB assay; format: functional, cell-based
Salmonella typhi [6] = assay: Antibacterial activity against Salmonella enterica subsp. enterica serovar Typhi MTCC 1251 assessed as growth inhibition at 2 mg/mL after 24 hr by disk diffusion method; format: functional, organism-based
THP-1 [7] = assay: Cytotoxicity against Homo sapiens (human) THP1 cells assessed as growth inhibition at 10 to 100 uM after 48 hr by SRB assay; format: functional, cell-based
Goffeauzyma gastrica = assay: Antifungal activity against Cryptococcus gastricus MTCC 1715 assessed as growth inhibition at 2 mg/mL after 48 hr by disk diffusion method; format: functional
THP-1 [8] = assay: Cytotoxicity against Homo sapiens (human) THP1 cells assessed as growth inhibition at 20 uM after 48 hr by SRB assay; format: functional; settings: THP-1, 48 h, read-out: GI
CV-1 = assay: Cytotoxicity against Chlorocebus aethiops (African green monkey) CV1 cells assessed as growth inhibition at 20 uM after 48 hr by SRB assay; format: functional; settings: CV-1, 48 h, read-out: GI
A549 = assay: Cytotoxicity against Homo sapiens (human) A549 cells assessed as growth inhibition at 20 uM after 48 hr by SRB assay; format: functional; settings: A549, 48 h, read-out: GI
HEp-2 = assay: Cytotoxicity against Homo sapiens (human) Hep2 cells assessed as growth inhibition at 20 uM after 48 hr by SRB assay; format: functional; settings: HEp-2, 48 h, read-out: GI
Staphylococcus aureus [9] = assay: Antibacterial activity against Staphylococcus aureus MTCC 96 assessed as growth inhibition at 5 ug/disk after 24 hr by disk diffusion method; format: functional; settings: MTCC 96, 24 h, read-out: DIZ
Salmonella typhi [10] = assay: Antibacterial activity against Salmonella enterica subsp. enterica serovar Typhi MTCC 1251 assessed as growth inhibition at 5 ug/disk after 24 hr by disk diffusion method; format: functional; settings: MTCC 1251, 24 h, read-out: DIZ
Bacillus subtilis [11] = assay: Antibacterial activity against Bacillus subtilis MTCC 2451 assessed as growth inhibition at 5 ug/disk after 24 hr by disk diffusion method; format: functional; settings: MTCC 2451, 24 h, read-out: DIZ
Pseudomonas aeruginosa [12] = assay: Antibacterial activity against Pseudomonas aeruginosa MTCC 2642 assessed as growth inhibition at 5 ug/disk after 24 hr by disk diffusion method; format: functional; settings: MTCC 2642, 24 h, read-out: DIZ
Escherichia coli [13] = assay: Antibacterial activity against Escherichia coli MTCC 82 assessed as growth inhibition at 5 ug/disk after 24 hr by disk diffusion method; format: functional; settings: MTCC 82, 24 h, read-out: DIZ
OVCAR-5 = assay: Cytotoxicity against Homo sapiens (human) OVCAR5 cells assessed as growth inhibition at 1 uM after 48 hr by SRB assay; format: functional; settings: OVCAR-5, 48 h, read-out: GI
MCF7 [14] = assay: Cytotoxicity against Homo sapiens (human) MCF7 cells assessed as growth inhibition at 1 uM after 48 hr by SRB assay; format: functional; settings: MCF7, 48 h, read-out: GI

COC(=O)c1ccc(O)cc1C(=O)OC
growth inhibition (GI) (Saccharomyces cerevisiae): inactive
growth inhibition (GI) (Staphylococcus aureus [1]): inactive
growth inhibition (GI) (Bacillus subtilis [2]): inactive
growth inhibition (GI) (Candida albicans): inactive
growth inhibition (GI) (Pseudomonas aeruginosa [3]): inactive
growth inhibition (GI) (Escherichia coli [4]): inactive
growth inhibition (GI) (MCF7 [5]): Active
growth inhibition (GI) (Salmonella typhi [6]): inactive
growth inhibition (GI) (THP-1 [7]): Active
growth inhibition (GI) (Goffeauzyma gastrica): inactive

O=c1[nH]cc(F)c(=O)[nH]1 [FLUOROURACIL]
inhibition of growth at 20 µM (THP-1 [8]): 79%
inhibition of growth at 20 µM (CV-1): 43%
inhibition of growth at 20 µM (A549): 79%
inhibition of growth at 20 µM (HEp-2): 87%

CC1(C)S[C@@H]2[C@H](NC(=O)[C@H](N)c3ccc(O)cc3)C(=O)N2[C@H]1C(=O)O [AMOXICILLIN]
zone of inhibition at 5 µg/disc (Staphylococcus aureus [9]): 21 mm
zone of inhibition at 5 µg/disc (Salmonella typhi [10]): 18 mm
zone of inhibition at 5 µg/disc (Bacillus subtilis [11]): 20 mm
zone of inhibition at 5 µg/disc (Pseudomonas aeruginosa [12]): 19 mm
zone of inhibition at 5 µg/disc (Escherichia coli [13]): 20 mm

CO[C@@]12[C@H](COC(N)=O)C3=C(C(=O)C(C)=C(N)C3=O)N1C[C@@H]1N[C@@H]12 [MITOMYCIN]
inhibition of growth at 1 µM (OVCAR-5): 71%
inhibition of growth at 1 µM (MCF7 [14]): 82%
